Structures are written as SMILES.

Assay [1] deals with Ribosomal protein S6 kinase alpha-4 (Homo sapiens) (UniProt O75676). The experiment in a line: Inhibition of MSK2 (unknown origin) at 0.49 uM relative to control.
In assay [2] the target is Casein kinase I isoform alpha (Homo sapiens) (UniProt P48729). Kind of assay: Inhibition of CSNK1A1 (unknown origin) at 0.49 uM relative to control.
In assay [3] the target is Ephrin type-A receptor 5 (Homo sapiens) (UniProt P54756). The experiment in a line: Inhibition of EPHA5 (unknown origin) at 0.49 uM relative to control.
In assay [4] the target is Ephrin type-B receptor 3 (Homo sapiens) (UniProt P54753). The experiment in a line: Inhibition of EPHB3 (unknown origin) at 0.49 uM relative to control.
Assay [5] has as its target T1, cGMP-dependent protein kinase 1 (Homo sapiens) (UniProt Q13976).
T1 sequence (whole entry): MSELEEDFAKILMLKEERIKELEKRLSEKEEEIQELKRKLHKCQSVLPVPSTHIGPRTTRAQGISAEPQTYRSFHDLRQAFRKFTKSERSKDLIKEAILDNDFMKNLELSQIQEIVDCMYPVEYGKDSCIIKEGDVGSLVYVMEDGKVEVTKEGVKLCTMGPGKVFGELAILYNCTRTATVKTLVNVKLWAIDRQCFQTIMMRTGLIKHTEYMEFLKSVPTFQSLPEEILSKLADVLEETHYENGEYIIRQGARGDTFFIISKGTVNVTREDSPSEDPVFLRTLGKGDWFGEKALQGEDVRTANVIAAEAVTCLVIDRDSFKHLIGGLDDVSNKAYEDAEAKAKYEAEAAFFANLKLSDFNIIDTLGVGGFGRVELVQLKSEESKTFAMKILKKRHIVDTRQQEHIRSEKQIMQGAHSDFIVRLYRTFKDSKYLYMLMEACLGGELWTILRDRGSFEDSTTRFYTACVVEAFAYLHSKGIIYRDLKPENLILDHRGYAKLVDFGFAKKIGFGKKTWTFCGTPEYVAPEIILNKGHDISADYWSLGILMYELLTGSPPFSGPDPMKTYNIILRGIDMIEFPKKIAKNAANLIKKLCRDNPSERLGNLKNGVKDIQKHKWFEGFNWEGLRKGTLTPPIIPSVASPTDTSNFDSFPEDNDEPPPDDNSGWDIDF
Kind of assay: Inhibition of PKG-alpha (unknown origin) at 0.49 uM relative to control.

Assay [6] concerns the target Inhibitor of nuclear factor kappa-B kinase subunit beta (Homo sapiens) (UniProt O14920). Kind of assay: Inhibition of IKK-beta (unknown origin) at 0.49 uM relative to control.
The target of assay [7] is Serine/threonine-protein kinase Nek2 (Homo sapiens) (UniProt P51955). Kind of assay: Inhibition of NEK2 (unknown origin) at 0.49 uM relative to control.
In assay [8] the target is Cyclin-dependent kinase 3 (Homo sapiens) (UniProt Q00526). Kind of assay: Inhibition of CDK3 (unknown origin) at 0.49 uM relative to control.
The target in assay [9] is CDK6/cyclin D3 (Homo sapiens) (UniProt P30281+Q00534). Kind of assay: Inhibition of CDK6/CyclinD3 (unknown origin) at 0.49 uM relative to control. Format: protein-complex assay.
In assay [10] the target is Dual specificity tyrosine-phosphorylation-regulated kinase 3 (Homo sapiens) (UniProt O43781). Kind of assay: Inhibition of DYRK3 (unknown origin) at 0.49 uM relative to control.
Assay [11] deals with Homeodomain-interacting protein kinase 4 (Homo sapiens) (UniProt Q8NE63). The experiment in a line: Inhibition of HIPK4 (unknown origin) at 0.49 uM relative to control.
Assay [12] addresses Vascular endothelial growth factor receptor 2 (Homo sapiens) (UniProt P35968). The experiment in a line: Inhibition of KDR (unknown origin) at 0.49 uM relative to control.
Assay [13] concerns the target Serine/threonine-protein kinase 10 (Homo sapiens) (UniProt O94804). The experiment in a line: Inhibition of LOK (unknown origin) at 0.49 uM relative to control.
The target of assay [14] is Tyrosine-protein kinase receptor UFO (Homo sapiens) (UniProt P30530). Kind of assay: Inhibition of AXL (unknown origin) at 0.49 uM relative to control.
The target in assay [15] is Hepatocyte growth factor receptor (Homo sapiens) (UniProt P08581). Kind of assay: Inhibition of MET (unknown origin) at 0.49 uM relative to control.
The target in assay [16] is RAC-alpha serine/threonine-protein kinase (Homo sapiens) (UniProt P31749). The experiment in a line: Inhibition of AKT1 (unknown origin) at 0.45 uM relative to control.
Assay [17] has as its target Testis-specific serine/threonine-protein kinase 2 (Homo sapiens) (UniProt Q96PF2). Kind of assay: Inhibition of TSSK2 (unknown origin) at 0.45 uM relative to control.
For assay [18], the target named is Ephrin type-A receptor 5 (Homo sapiens) (UniProt P54756). Kind of assay: Inhibition of EPHA5 (unknown origin) at 0.45 uM relative to control.
Assay [19] concerns the target Ephrin type-B receptor 1 (Homo sapiens) (UniProt P54762). The experiment in a line: Inhibition of EPHB1 (unknown origin) at 0.45 uM relative to control.
The target in assay [20] is Serine/threonine-protein kinase Sgk3 (Homo sapiens) (UniProt Q96BR1). The experiment in a line: Inhibition of SGK3 (unknown origin) at 0.45 uM relative to control.
Assay [21] addresses Calcium/calmodulin-dependent protein kinase type II subunit beta (Homo sapiens) (UniProt Q13554). Kind of assay: Inhibition of CaMK2-beta (unknown origin) at 0.45 uM relative to control.
Assay [22] deals with Serine/threonine-protein kinase PAK 3 (Homo sapiens) (UniProt O75914). The experiment in a line: Inhibition of PAK3 (unknown origin) at 0.45 uM relative to control.
Assay [23] addresses Tyrosine-protein kinase HCK (Homo sapiens) (UniProt P08631). Kind of assay: Inhibition of Hck (unknown origin) at 0.45 uM relative to control.
For assay [24], the target named is Tyrosine-protein kinase ITK/TSK (Homo sapiens) (UniProt Q08881). The experiment in a line: Inhibition of ITK (unknown origin) at 0.45 uM relative to control.
Assay [25] addresses BDNF/NT-3 growth factors receptor (Homo sapiens) (UniProt Q16620). Kind of assay: Inhibition of NTRK2 (unknown origin) at 0.45 uM relative to control.
Assay [26] deals with Serine/threonine-protein kinase MARK1 (Homo sapiens) (UniProt Q9P0L2). The experiment in a line: Inhibition of MARK1 (unknown origin) at 0.45 uM relative to control.
Assay [27] relates to Proto-oncogene tyrosine-protein kinase receptor Ret (Homo sapiens), P07949 [Y791F]. Kind of assay: Inhibition of RET Y791F mutant (unknown origin) at 0.45 uM relative to control.
Assay [28] deals with Tyrosine-protein kinase TXK (Homo sapiens) (UniProt P42681). The experiment in a line: Inhibition of TXK (unknown origin) at 0.45 uM relative to control.
Assay [29] has as its system Leucine-rich repeat serine/threonine-protein kinase 2 (Homo sapiens), Q5S007 [G2019S]. Kind of assay: Inhibition of LRRK2 G2019S mutant (unknown origin) at 0.45 uM relative to control.
The target of assay [30] is Serine/threonine-protein kinase PAK 2 (Homo sapiens) (UniProt Q13177). The experiment in a line: Inhibition of PAK2 (unknown origin) at 0.078 uM relative to control.
The target of assay [31] is Mitogen-activated protein kinase kinase kinase 7 (Homo sapiens) (UniProt O43318). Kind of assay: Inhibition of c-TAK1 (unknown origin) at 0.078 uM relative to control.

Chain of Ephrin type-A receptor 5 (Homo sapiens) (P54756 whole entry): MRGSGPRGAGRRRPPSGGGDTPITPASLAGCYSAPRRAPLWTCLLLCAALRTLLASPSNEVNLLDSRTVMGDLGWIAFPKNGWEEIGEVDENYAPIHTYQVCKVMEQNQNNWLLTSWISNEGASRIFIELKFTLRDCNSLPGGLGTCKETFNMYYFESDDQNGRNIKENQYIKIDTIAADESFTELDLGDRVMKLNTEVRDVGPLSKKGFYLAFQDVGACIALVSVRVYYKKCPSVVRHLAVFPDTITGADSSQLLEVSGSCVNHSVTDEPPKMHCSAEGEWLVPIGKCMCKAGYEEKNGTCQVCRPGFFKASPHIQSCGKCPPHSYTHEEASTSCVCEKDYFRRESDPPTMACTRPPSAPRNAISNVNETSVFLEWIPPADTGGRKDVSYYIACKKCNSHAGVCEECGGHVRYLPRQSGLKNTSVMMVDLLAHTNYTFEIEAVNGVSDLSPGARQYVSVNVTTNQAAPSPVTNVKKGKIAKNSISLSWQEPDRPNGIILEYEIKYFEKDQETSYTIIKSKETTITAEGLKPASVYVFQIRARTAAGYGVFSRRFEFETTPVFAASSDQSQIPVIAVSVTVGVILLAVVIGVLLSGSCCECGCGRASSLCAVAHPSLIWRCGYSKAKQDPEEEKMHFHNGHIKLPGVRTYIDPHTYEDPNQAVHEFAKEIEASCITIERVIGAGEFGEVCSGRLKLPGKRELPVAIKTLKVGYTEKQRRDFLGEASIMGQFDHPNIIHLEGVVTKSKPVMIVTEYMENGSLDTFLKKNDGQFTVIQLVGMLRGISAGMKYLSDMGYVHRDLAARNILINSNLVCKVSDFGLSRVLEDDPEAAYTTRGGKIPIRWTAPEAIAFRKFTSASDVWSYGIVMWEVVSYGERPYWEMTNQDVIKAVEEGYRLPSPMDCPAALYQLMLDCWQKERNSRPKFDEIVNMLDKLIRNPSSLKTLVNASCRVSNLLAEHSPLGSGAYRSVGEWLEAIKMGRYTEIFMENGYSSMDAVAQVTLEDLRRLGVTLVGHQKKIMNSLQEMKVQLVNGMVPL
Chain of Serine/threonine-protein kinase Nek2 (Homo sapiens) (P51955 whole entry): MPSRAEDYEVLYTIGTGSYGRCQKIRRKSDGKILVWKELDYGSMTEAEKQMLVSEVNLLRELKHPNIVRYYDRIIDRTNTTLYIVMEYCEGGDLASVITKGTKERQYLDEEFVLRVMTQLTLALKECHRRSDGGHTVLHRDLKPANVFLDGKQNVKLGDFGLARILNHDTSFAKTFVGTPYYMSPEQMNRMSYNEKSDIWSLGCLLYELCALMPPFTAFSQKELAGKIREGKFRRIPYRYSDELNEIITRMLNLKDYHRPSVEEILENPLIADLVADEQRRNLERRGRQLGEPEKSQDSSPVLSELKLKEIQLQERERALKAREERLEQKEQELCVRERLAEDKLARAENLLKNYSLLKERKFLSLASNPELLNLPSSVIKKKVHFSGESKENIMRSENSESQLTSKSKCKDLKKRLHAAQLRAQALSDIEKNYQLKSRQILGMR
Chain of Ephrin type-B receptor 1 (Homo sapiens) (P54762 whole entry): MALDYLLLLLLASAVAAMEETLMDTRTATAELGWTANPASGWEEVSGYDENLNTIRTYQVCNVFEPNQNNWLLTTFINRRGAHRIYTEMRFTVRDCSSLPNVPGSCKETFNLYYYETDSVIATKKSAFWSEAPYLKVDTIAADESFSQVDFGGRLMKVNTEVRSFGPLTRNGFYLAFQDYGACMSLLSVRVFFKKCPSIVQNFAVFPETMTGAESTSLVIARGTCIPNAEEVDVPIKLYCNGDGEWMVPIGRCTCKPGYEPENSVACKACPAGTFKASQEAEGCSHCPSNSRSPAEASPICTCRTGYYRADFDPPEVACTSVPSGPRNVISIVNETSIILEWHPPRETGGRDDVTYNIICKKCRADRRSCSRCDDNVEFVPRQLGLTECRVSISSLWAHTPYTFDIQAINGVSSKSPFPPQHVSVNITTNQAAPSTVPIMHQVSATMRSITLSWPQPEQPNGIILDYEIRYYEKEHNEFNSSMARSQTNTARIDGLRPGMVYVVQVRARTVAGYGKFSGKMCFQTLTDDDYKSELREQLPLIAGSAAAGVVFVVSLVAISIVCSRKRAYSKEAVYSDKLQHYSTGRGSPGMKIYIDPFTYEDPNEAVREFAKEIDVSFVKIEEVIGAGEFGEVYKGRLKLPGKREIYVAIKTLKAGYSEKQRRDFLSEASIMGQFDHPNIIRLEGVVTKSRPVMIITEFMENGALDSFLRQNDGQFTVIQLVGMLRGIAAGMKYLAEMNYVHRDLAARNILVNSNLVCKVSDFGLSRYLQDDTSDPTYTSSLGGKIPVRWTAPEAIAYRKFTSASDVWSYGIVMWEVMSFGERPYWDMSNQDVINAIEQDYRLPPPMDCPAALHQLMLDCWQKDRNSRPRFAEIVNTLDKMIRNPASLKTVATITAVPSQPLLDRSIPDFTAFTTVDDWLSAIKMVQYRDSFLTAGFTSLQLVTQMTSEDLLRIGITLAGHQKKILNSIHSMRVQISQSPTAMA
Chain of Serine/threonine-protein kinase MARK1 (Homo sapiens) (Q9P0L2 whole entry, looked up): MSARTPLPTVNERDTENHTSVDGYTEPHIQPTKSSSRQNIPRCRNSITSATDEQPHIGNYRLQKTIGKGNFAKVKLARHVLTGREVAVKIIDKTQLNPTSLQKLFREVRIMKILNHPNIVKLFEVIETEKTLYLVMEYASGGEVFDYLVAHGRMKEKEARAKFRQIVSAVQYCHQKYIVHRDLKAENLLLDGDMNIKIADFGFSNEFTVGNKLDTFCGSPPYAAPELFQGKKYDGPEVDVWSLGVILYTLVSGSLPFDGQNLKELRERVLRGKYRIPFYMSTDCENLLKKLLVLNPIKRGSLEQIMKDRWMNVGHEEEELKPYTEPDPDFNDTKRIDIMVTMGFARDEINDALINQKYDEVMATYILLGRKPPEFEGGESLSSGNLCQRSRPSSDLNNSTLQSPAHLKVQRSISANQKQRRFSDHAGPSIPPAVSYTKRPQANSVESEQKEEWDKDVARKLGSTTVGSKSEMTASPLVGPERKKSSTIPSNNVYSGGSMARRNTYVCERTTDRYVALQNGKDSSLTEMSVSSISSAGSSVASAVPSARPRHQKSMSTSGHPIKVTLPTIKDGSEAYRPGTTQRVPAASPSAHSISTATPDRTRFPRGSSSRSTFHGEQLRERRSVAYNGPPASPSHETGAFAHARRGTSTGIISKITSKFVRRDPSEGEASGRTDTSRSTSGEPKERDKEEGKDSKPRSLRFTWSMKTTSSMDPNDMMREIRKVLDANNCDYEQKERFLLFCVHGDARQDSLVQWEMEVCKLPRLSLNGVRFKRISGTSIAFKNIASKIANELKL
Chain of Tyrosine-protein kinase receptor UFO (Homo sapiens) (P30530 whole entry): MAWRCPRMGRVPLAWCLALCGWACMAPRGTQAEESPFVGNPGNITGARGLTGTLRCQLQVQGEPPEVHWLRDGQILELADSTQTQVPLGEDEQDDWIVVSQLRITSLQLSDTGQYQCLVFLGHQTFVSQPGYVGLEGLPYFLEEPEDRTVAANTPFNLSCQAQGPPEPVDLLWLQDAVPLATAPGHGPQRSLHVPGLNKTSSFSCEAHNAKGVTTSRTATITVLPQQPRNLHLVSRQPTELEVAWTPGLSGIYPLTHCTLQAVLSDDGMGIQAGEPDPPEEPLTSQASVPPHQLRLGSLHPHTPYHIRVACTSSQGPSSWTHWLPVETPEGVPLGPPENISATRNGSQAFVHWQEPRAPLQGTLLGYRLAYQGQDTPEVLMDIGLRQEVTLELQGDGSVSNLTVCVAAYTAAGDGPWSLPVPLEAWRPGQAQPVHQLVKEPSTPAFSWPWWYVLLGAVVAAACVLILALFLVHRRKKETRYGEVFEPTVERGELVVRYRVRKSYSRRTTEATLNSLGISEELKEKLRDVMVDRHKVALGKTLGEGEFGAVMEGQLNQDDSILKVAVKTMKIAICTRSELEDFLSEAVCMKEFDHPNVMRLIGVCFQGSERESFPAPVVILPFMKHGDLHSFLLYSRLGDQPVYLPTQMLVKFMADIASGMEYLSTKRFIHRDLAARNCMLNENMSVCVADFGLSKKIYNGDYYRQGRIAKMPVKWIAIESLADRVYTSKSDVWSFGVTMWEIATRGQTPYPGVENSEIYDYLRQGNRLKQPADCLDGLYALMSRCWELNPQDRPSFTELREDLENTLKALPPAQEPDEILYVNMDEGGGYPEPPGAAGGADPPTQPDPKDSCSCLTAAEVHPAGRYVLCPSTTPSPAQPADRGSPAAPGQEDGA
Chain of Testis-specific serine/threonine-protein kinase 2 (Homo sapiens) (Q96PF2 whole entry): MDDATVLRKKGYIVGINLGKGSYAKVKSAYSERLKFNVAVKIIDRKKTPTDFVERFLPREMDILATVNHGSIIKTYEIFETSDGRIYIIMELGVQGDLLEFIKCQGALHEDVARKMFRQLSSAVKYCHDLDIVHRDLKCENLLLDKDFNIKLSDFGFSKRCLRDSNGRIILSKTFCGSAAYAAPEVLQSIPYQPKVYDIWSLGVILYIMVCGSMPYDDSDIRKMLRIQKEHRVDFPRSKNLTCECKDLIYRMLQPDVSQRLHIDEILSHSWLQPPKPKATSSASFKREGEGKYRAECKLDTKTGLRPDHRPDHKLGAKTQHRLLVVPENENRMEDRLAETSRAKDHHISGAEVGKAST
Chain of RAC-alpha serine/threonine-protein kinase (Homo sapiens) (P31749 whole entry): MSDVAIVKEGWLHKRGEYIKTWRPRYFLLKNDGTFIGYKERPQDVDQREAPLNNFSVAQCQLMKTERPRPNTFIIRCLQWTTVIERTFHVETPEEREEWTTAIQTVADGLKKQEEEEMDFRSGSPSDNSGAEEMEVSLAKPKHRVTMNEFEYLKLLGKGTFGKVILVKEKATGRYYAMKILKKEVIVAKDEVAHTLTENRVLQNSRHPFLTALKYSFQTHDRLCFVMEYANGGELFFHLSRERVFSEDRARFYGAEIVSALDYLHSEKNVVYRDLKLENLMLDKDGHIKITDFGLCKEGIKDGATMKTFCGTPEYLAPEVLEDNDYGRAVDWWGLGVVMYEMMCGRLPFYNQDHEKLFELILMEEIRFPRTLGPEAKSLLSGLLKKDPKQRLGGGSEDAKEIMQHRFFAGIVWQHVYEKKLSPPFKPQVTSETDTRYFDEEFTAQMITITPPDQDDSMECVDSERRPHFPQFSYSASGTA

One may read the inhibition as the relative decrease from the control value, in per cent. `Cc1[nH]nc(C2CC2)c1-c1ccc2c(NC(=O)C3CC3)noc2c1`: the inhibition in assay [1] is -3.7%; in [2], 1.7%; in assay [3], 3%; in assay [4], 0.7%; in assay [5], 0%; in assay [6] it was 2.3%. The inhibition in [7] was found to be 10.7%; in assay [8] it was 3.3%; in [9] it was 1.7%; in assay [10], 1%; in [11] it was 1.7%; in assay [12] it was 5%. For the same molecule, the inhibition was 9.7% in [13], -0.3% in assay [14] and 7.3% in assay [15].

Regarding `Cc1n[nH]c(C)c1-c1ccc2c(NC(=O)c3ccc(N4CCN(C)CC4)cc3)n[nH]c2c1`, the inhibition in assay [16] is -1.7%; in [17], -3%; in [18], 3%; in [19], 6.7%; in assay [20] it was 3.3%; in assay [21], -0.3%. The inhibition in assay [22] was 3.7%; in assay [23], 30.3%; in [24], 89%; in assay [25] it was 85.7%; in assay [26] it was 36.7%; in assay [27] it was 58.7%. In addition, the inhibition in assay [28] is -0.7%; in [29] it was 18.7%.

For `COC(=O)Nc1noc2cc(-c3c(-c4ccccn4)n[nH]c3C)ccc12`, the inhibition in [30] was -5.3%; in assay [31], -3.3%.

The values above are taken from ChEMBL document CHEMBL4052759, “Discovery of DS79182026: A potent orally active hepcidin production inhibitor” (Bioorg Med Chem Lett, 2017).
